From patent US20210316003A1 (Immunomedics, Inc., priority 2020, published 2021)
Where “and” joins values, the source holds several entries; their conditions need not be identical. Equal entries are not always repeated.

How the values were obtained:
[1] = system: patients with mSCLC; experiment: Phase I/II trial (NCT01631552), mSCLC: efficacy by RECIST 1.1; type: in vivo, human
Text: Patients ≥18 years of age with mSCLC who had relapsed or were refractory to at least one prior standard line of therapy for stage IV metastatic disease, and with measurable tumors by CT, were enrolled. […] Previous therapy had to be completed at least 4 weeks before enrollment.
The primary endpoint was the proportion of patients with a confirmed objective response, assessed approximately every 8 weeks until disease progression, by each institution's radiology group or a contracted local radiology service. Objective responses were assessed by Response Evaluation Criteria in Solid Tumors, version 1.1 (RECIST 1.1) (Eisenhauer et al., 2009, Eur J Cancer 45:228-47). Partial (PR) or complete responses (CR) required confirmation within 4 to 6 weeks after the initial response. Clinical benefit rate (CBR) is defined as those patients with an objective response plus stable disease (SD) ≥4 months. Survival was monitored every 3 months until death or withdrawal of consent.
The protocol provided that objective response rates (ORR) were determined for patients who received ≥2 doses (1 cycle) and had their initial 8-week CT assessment. Duration of response is defined in accordance to RECIST 1.1 criteria, with those having an objective response marked from time of the first evidence of response until progression, while stable disease duration is marked from the start of treatment until progression. PFS and OS were defined from the start of treatment until an objective assessment of progression was determined (PFS) or death (OS). Duration of response, PFS, and OS were estimated by Kaplan-Meier methods, with 95% confidence intervals (CI), using MedCalc Statistical Software, version 16.4.3 (Ostend, Belgium).

[2] = Serum pharmacokinetics (ELISA for IgG and intact conjugate, HPLC for SN-38); type: in vivo, human; conditions: patients
Method: Two ELISA methods were used to measure the clearance of the IgG (capture with anti-hRS7 idiotype antibody) and the intact conjugate (capture with anti-SN-38 IgG/probe with anti-hRS7 idiotype antibody). SN-38 was measured by HPLC.

[3] = system: patients with diverse metastatic cancers; experiment: Phase I trial and phase II extension in diverse epithelial cancers: best response and time to progression; type: in vivo, human
Text: The present Example reports the initial Phase I trial of 25 patients (pts) who had failed multiple prior therapies (some including topoisomcrasc-I/II inhibiting drugs), and the ongoing Phase II extension now reporting on 69 pts, including in colorectal (CRC), small-cell and non-small cell lung (SCLC, NSCLC, respectively), triple-negative breast (TNBC), pancreatic (PDC), esophageal, gastric, prostate, ovarian, renal, urinary bladder, head/neck and hepatocellular cancers. Patients were refractory/relapsed after standard treatment regimens for metastatic cancer. […]
A total of 69 patients (including 25 patients in Phase I) with diverse metastatic cancers having a median of 3 prior therapies were reported. Eight patients had clinical progression and withdrew before CT assessment. Thirteen CT-assessable pancreatic cancer patients were separately reported. The median TTP (time to progression) in PDC patients was 11.9 wks (range 2 to 21.4 wks) compared to median 8 wks TTP for the preceding last therapy.
A total of 48 patients with diverse cancers had at least 1 CT-assessment from which Best Response and Time to Progression (TTP) were determined. […] For SCLC (small cell lung cancer), of 4 assessable patients there were 2 PR, 0 SD and 2 PD for a total response of 2/4 (50%). For CRC (colorectal cancer), of 18 assessable patients there were 1 PR, 11 SD and 6 PD for a total response of 12/18 (67%). For esophageal cancer, of 4 assessable patients there were 1 PR, 2 SD and 1 PD for a total response of 3/4 (75%). For NSCLC (non-small cell lung cancer), of 5 assessable patients there were 1 PR, 3 SD and 1 PD for a total response of 4/5 (80%). Over all patients treated, of 48 assessable patients there were 7 PR, 27 SD and 14 PD for a total response of 34/48 (71%).

[4] = system: patients with metastatic TNBC; conditions: second line or later (Bardia et al., 2019); cited from earlier work
[5] = system: TNBC xenografts; conditions: nude mice bearing TNBC xenografts, independent of BRCA1/2 mutation status; cited from earlier work
[6] = SG as ≥3 line, no prior topotecan/irinotecan (N = 9)
[7] = SG as ≥3 line, prior topotecan/irinotecan (N = 15)
[8] = prior immune checkpoint inhibitor
[9] = 48 assessable pts (excluding PDC)
[10] = 48 assessable pts (excluding PDC), listed as hRS7-SN-38
[11] = CRC, person, after 10 months of treatment
[12] = esophageal cancer, 4 assessable patients

sacituzumab govitecan
Duration of SD in ten patients with SD ≥4 months, Kaplan-Meier-derived median [1]: 5.6 months | Median OS for the seven confirmed PR patients [1]: 9.2 months | Median OS for the ten patients with SD ≥4 months [1]: 8.3 months | Confirmed PR ([1]; 8 mg/kg starting dose, thirteen patients): 8% | Confirmed PR ([1]; 10 mg/kg starting dose (N = 30)): 20% | CBR (clinical benefit rate) ([1]; 10 mg/kg starting dose, 14/30): 47% | Patients with a reduction of tumor size from baseline ([1]; 21 of 43 CT-assessable patients): 49% | Stable disease (SD), including unconfirmed PR ([1]; 21 of 43 assessable patients): 49% | PD, % ([1]; 43 with response assessment): (35%) | Duration of confirmed objective response, median ([1]; Kaplan-Meier): 5.7 months | Clinical benefit rate (PR + SD ≥ 4 months), % ([1]; SG as second line (N = 19)): (37%) | OS, median ([1]; SG as second line (N = 19)): 8.1 months | PFS, median ([1]; SG as second line (N = 19)): 3.6 months | Clinical benefit rate (PR + SD ≥ 4 months), % ([1]; SG as ≥3 line (N = 24)): (38%) | OS, median ([1]; SG as ≥3 line (N = 24)): 7.0 months | PFS, median ([1]; SG as ≥3 line (N = 24)): 3.7 months | Clinical benefit rate (PR + SD ≥ 4 months), % [1, 6]: (33%) | OS, median [1, 6]: 5.5 months | PFS, median [1, 6]: 3.7 months | Clinical benefit rate (PR + SD ≥ 4 months), % [1, 7]: (40%) | OS, median [1, 7]: 8.8 months | PFS, median [1, 7]: 3.8 months and 3.6 months | Overall survival, median ([1]; intention-to-treat N = 53): 7.0 months | Progression-free survival, median ([1]; intention-to-treat N = 53): 3.6 months | Tumor shrinkage (SD lasting 8.7 months), single patient [1, 8]: 17% | Tumor shrinkage on first assessment (unconfirmed PR), single patient [1, 8]: 54% | Clinical benefit rate (PR + SD ≥ 4 months), % ([1]; resistant (N = 19) to 1st line): (26%) | OS, median ([1]; resistant (N = 19) to 1st line): 6.2 months | PFS, median ([1]; resistant (N = 19) to 1st line): 3.6 months | Confirmed PR ([1]; resistant to first-line platinum, nineteen patients): 16% | PR ([1]; second-line setting, 3/19): 16% | Clinical benefit rate (PR + SD ≥ 4 months), % ([1]; sensitive (N = 24) to 1st line): (50%) | OS, median ([1]; sensitive (N = 24) to 1st line): 8.3 months | PFS, median ([1]; sensitive (N = 24) to 1st line): 3.8 months | Confirmed PR ([1]; sensitive to first-line platinum, 24 patients): 17% | Median time to response ([1]; seven confirmed PR): 2.0 months | Median PFS for the confirmed PR group ([1]; seven patients): 7.9 months | Confirmed PR ([1]; third or higher line (N = 24)): 16% | Clearance of intact conjugate compared with the IgG ([2]; ELISA): cleared more quickly than the IgG | Time for the conjugate to clear from the serum ([2]; serum): ≤ 3 days | SN-38 in the serum bound to the IgG (non-glucuronidated form) ([2]; serum, HPLC (Unbound and TOTAL)): > 95% | Partial response (PR), % of patients [3, 9]: 15% | Stable disease (SD), % of patients [3, 9]: 56% | Stable disease (SD), number of patients [3, 9]: 27 | Total response [PR+SD], % of patients [3, 9]: 79% | Total response [PR+SD], number of patients [3, 9]: 38 | Total response [PR+SD], % of patients [3, 10]: 71% | Total response [PR+SD], number of patients [3, 10]: 34/48 | Total response [PR+SD] ([3]; CRC, 12/18): 67% | PD, number of patients ([3]; CRC, 18 assessable patients): 6 | PR, number of patients ([3]; CRC, 18 assessable patients): 1 | CEA after treatment (decrease from 781), single patient [3, 11]: 26.5 ng/mF | Maximum reduction in target lesions, single patient [3, 11]: 65% | Reduction in target lesions on first CT assessment (PR), single patient ([3]; CRC, person, starting dose 8 mg/kg): 37% | Total response [PR+SD] ([3]; NSCLC, 4/5): 80% | PD, number of patients ([3]; NSCLC, 5 assessable patients): 1 | PR, number of patients ([3]; NSCLC, 5 assessable patients): 1 | Primary target lesion size at first CT (from 5.6 cm), single patient ([3]; NSCLC, person, after 6th dose): 3.2 cm | Total response [PR+SD] ([3]; SCLC, 2/4): 50% | PD, number of patients ([3]; SCLC, 4 assessable patients): 2 | PR, number of patients ([3]; SCLC, 4 assessable patients): 2 | Reduction in target lesions, single patient ([3]; SCLC, person, 12 mg/kg reduced to 6.8 mg/kg, after two months): 38% | Total response [PR+SD] ([3]; TNBC, 6/8): 75% | PD, number of patients ([3]; TNBC, 8 assessable patients): 2 | PR, number of patients ([3]; TNBC, 8 assessable patients): 2 | PD, number of patients ([3]; all, 48 assessable patients): 14 | PR, number of patients ([3]; all, 48 assessable patients): 7 | Total response [PR+SD] ([3]; esophageal cancer, 3/4): 75% | PD, number of patients [3, 12]: 1 | PR, number of patients [3, 12]: 1 | Median progression-free survival (PFS) [4]: 5.5 months | Overall survival (OS) [4]: 13.0 months | Response rate [4]: 33.3% | Tumor growth in combination with olaparib, rucaparib and talazoparib [5]: Synthetic lethality and synergistic inhibition of tumor growth
